Values joined by “and” are separate entries in the source; they are usually repeats but may differ in a detail not shown here. Equal entries are not always repeated. Numbered stars: 1 amine (or outer) side, 2 acyl side, 3 side chain; on linkers, the order of the positions; unused ones are H or OH. Bridge positions count the residues as written; N and C are the ends. Square brackets hold non-standard residues; d marks the D form. Peptide text beside a SMILES is read from it. I, II: the chains in the order shown. * marks the point of attachment. X2 = NC(=O)[C@H](CCCCNC(=O)c1cc(C[*:1])cc(C[*:2])c1)NC(=O)COCCOCCN[*:3]; X1 = O=C1OC2(c3ccc(C(=O)*)cc31)c1ccc3cc(O)ccc3c1Oc1c2ccc2cc(O)ccc12; X3 = NC(=O)[C@H](CCCCNC(=O)CON=C(C[*:1])C[*:2])NC(=O)COCCOCCN[*:3]; FITC = O=C1OC2(c3ccc(O)cc3Oc3cc(O)ccc32)c2ccc(NC(=S)*)cc21; 2Nal = N[C@@H](Cc1ccc2ccccc2c1)C(=O)O; mXylylene = c1cc(C[*:1])cc(C[*:2])c1; NF = 5(6)-carboxynaphthofluorescein; CH2COCH2 = O=C(C[*:1])C[*:2]; hCys = N[C@@H](CCS)C(=O)O; K(NF) = not defined here; AEEA = NCCOCCOCC(=O)O; βAla = NCCC(=O)O
What was measured:
HeLa cells = test: Cytosolic entry efficiency of NF-labeled peptides by flow cytometry; details: NF-labeled peptide 5 μM, 2 h, 37° C., 10% FBS; relative to CPP9 (100%)
Experimental: Flow Cytometry. HeLa cells were seeded in 12-well plates at 1.5×10^5 cells per well for 24 h. The next day, naphthofluorescein-labelled peptide (5 μM) was added to the cells in DMEM medium supplemented with 10% fetal bovine serum (FBS) and 1% penicillin/streptomycin and the cells were incubated at 37° C. for 2 h in the presence of 5% CO2. The medium containing the peptide was removed and the cells were washed with DPBS twice. […] Data were analyzed using the Flowjo software (Tree Star).

MDM2 [1] = molecular target: T1, MDM2 (Homo sapiens, UniProt Q00987); test: Direct binding of FITC-labeled peptides to MDM2 (KD); details: relative to the parent peptide
HCT116 p53−/− = test: MTT viability assay, HCT116 p53-/-; format: cell-based, human; details: 0-12.5 μM, 48 h, 10% FBS
Experimental: (§1) Peptides 4 and 5 were tested for anticancer activity against human colon carcinoma cell lines harboring WT (HCT116 p53+/+) and mutant p53 genes (HCT116 p53−/−) using the MTT viability assay. […] See Vassilev, L. T., et al., Science, 303, 844-848 (2004).
(§2) MTT Assay. HCT116 p53 wild type and HCT116 p53^−/− cells were seeded in 96-well plate with 3×10^3 cells per well, and allowed to grow overnight. Different concentrations of peptides (0-12.5 μM) were added to the cells in McCoy's 5A medium supplemented with 10% FBS and 1% penicillin/streptomycin and incubated at 37° C. for 48 h in the presence of 5% CO2. After that, 10 μL of an MTT stock solution (5 mg/mL) was added into each well and the plate was incubated at 37° C. for 4 h. 100 μL of SDS-HCl solubilizing solution was added and the plate was incubated at 37° C. overnight. The absorbance of the formazan product formed was measured at 570 nm on a Tecan microtiter plate reader.

HCT116 p53+/+ = test: MTT viability assay, HCT116 WT p53; format: cell-based, human; details: 0-12.5 μM, 48 h, 10% FBS
Experimental: as §1, §2

MDM2 [2] = molecular target: T1, MDM2; test: Fluorescence anisotropy (FA)-based competition with FITC-labeled peptide 1 for binding to MDM2; details: unlabeled peptides 4 and 5
Excerpt: Expression and Purification of GST-MDM2.

| Compound | fold decrease of MDM2 binding affinity (MDM2 [1]) | Cellular Uptake (MFI^NF, %) (HeLa cells) | other results |
| --- | --- | --- | --- |
| NF-βA-NPECILDCHVQRVM-NH2 [18] ({NF-βAla}-NPECILDCHVQRVM-NH2; bridge 4-8; not fully specified (bridges)) [Peptide 18] |  | 8.9% and 8.9 ± 2.9% |  |
| NF-βA-ENPECILDCHVQRVM-NH2 [16] ({NF-βAla}-ENPECILDCHVQRVM-NH2; bridge 5-9; not fully specified (bridges)) [Peptide 16] |  | 2.5% and 2.5 ± 0.5% |  |
| CC(=O)N[C@@H](CC(C)C)C(=O)N[C@H](C(=O)N[C@@H](Cc1ccccc1)C(=O)N[C@H]1CCSCC(=O)CSCC[C@@H](C(=O)N[C@@H](CCC(N)=O)C(=O)N[C@@H](CC(C)C)C(=O)N[C@H](C(=O)N[C@@H](CO)C(=O)NCCOCCOCC(=O)N[C@@H](CCCCNC(=S)Nc2ccc3c(c2)C(=O)OC32c3ccc(O)cc3Oc3cc(O)ccc32)C(N)=O)[C@@H](C)O)NC(=O)[C@H](Cc2c[nH]c3ccccc23)NC(=O)[C@H](Cc2ccc(O)cc2)NC(=O)[C@H](Cc2c[nH]cn2)NC1=O)[C@@H](C)O [Peptide 2] (Ac-LTF[hCys]HYW[hCys]QLTS[AEEA]K(FITC)-NH2; linker 4-8 via CH2COCH2) |  |  | effect on viability of p53 mutant cells (HCT116 p53−/−): no significant effect; effect on viability of WT p53 cells (HCT116 p53+/+): no significant effect |
| CC(=O)N[C@@H](CC(C)C)C(=O)N[C@H](C(=O)N[C@@H](Cc1ccccc1)C(=O)N[C@H]1CCSCC(=NOCC(=O)NCCCC[C@H](NC(=O)COCCOCCNC(=O)CC[C@@H]2NC(=O)[C@@H](CCCNC(=N)N)NC(=O)[C@H](CCCNC(=N)N)NC(=O)[C@@H](CCCNC(=N)N)NC(=O)[C@H](CCCNC(=N)N)NC(=O)[C@H](Cc3ccc4ccccc4c3)NC(=O)[C@@H](Cc3ccccc3)NC2=O)C(N)=O)CSCC[C@@H](C(=O)N[C@@H](CCC(N)=O)C(=O)N[C@@H](CC(C)C)C(=O)N[C@H](C(=O)N[C@@H](CO)C(=O)NCCOCCOCC(=O)N[C@@H](CCCCN)C(N)=O)[C@@H](C)O)NC(=O)[C@H](Cc2c[nH]c3ccccc23)NC(=O)[C@H](Cc2ccc(O)cc2)NC(=O)[C@H](Cc2c[nH]cn2)NC1=O)[C@@H](C)O [Peptide 4] (I: Ac-LTF[hCys]HYW[hCys]QLTS[AEEA]K-NH2 / II: cyclo([2Nal]R[dR]R[dR]E[dF]); linker I:4-I:8-II:6 via X3) |  |  | IC50 (MDM2 [2]): 220 nM |
| COc1ccc(C2=N[C@@H](c3ccc(Cl)cc3)[C@@H](c3ccc(Cl)cc3)N2C(=O)N2CCNC(=O)C2)c(OC(C)C)c1 [Nutlin-3, reference compound] |  |  | effect on viability of WT p53 cells (HCT116 p53+/+): selectively killed the WT p53 cells in a dose-dependent manner |
| CC(=O)N[C@@H](CC(C)C)C(=O)N[C@H](C(=O)N[C@@H](Cc1ccccc1)C(=O)N[C@H]1CCSCc2cccc(c2)CSCC[C@@H](C(=O)N[C@@H](CCC(N)=O)C(=O)N[C@@H](CC(C)C)C(=O)N[C@H](C(=O)N[C@@H](CO)C(=O)NCCOCCOCC(=O)N[C@@H](CCCCNC(=O)c2ccc3c(c2)C(=O)OC32c3ccc4cc(O)ccc4c3Oc3c2ccc2cc(O)ccc32)C(N)=O)[C@@H](C)O)NC(=O)[C@H](Cc2c[nH]c3ccccc23)NC(=O)[C@H](Cc2ccc(O)cc2)NC(=O)[C@H](Cc2c[nH]cn2)NC1=O)[C@@H](C)O [Peptide 8, Ac-LTFhCHYWhCQLTS-miniPEG-K(NF)-NH2] (Ac-LTF[hCys]HYW[hCys]QLTS[AEEA]K(X1)-NH2; linker 4-8 via mXylylene) |  |  | fold improvement of MDM2 binding affinity (MDM2 [1]): 5 fold |
| Ac-ETFCHYWCQLTS-miniPEG-K(NF)-NH2 (Ac-ETFCHYWCQLTS-{miniPEG-K(NF)-NH2}; linker 4-8 via xylene; reading uncertain; also: printed as Ac-ETFCHYWCQLTS-miniPEG-K(NF)-NH2) [Peptide 10] |  | 2.8% and 2.8 ± 0.1% |  |
| CC(=O)N[C@@H](CC(C)C)C(=O)N[C@H](C(=O)N[C@@H](Cc1ccccc1)C(=O)N[C@H]1CCSCC(=NOCC(=O)NCCCC[C@H](NC(=O)COCCOCCNC(=O)CC[C@@H]2NC(=O)[C@@H](CCCNC(=N)N)NC(=O)[C@H](CCCNC(=N)N)NC(=O)[C@@H](CCCNC(=N)N)NC(=O)[C@H](CCCNC(=N)N)NC(=O)[C@H](Cc3ccc4ccccc4c3)NC(=O)[C@@H](Cc3ccccc3)NC2=O)C(N)=O)CSCC[C@@H](C(=O)N[C@@H](CCC(N)=O)C(=O)N[C@@H](CC(C)C)C(=O)N[C@H](C(=O)N[C@@H](CO)C(=O)NCCOCCOCC(=O)N[C@@H](CCCCN)C(N)=O)[C@@H](C)O)NC(=O)[C@H](Cc2c[nH]c3ccccc23)NC(=O)[C@H](Cc2ccc(O)cc2)NC(=O)[C@H](Cc2c[nH]cn2)NC1=O)[C@@H](C)O [Peptide 5] (I: Ac-LTF[hCys]HYW[hCys]QLTS[AEEA]K-NH2 / II: cyclo([2Nal]R[dR]R[dR]E[dF]); linker I:4-I:8-II:6 via X3) |  |  | IC50 (MDM2 [2]): 201 nM |
| NF-βA-RKFCRLFC-NH2 [14] ({NF-βAla}-RKFCRLFC-NH2; bridge 4-8; not fully specified (bridges)) [Peptide 14] |  | 47% and 47 ± 9% |  |

Second part, led by results:

| fold decrease of MDM2 binding affinity (MDM2 [1]) | Compound | Cellular Uptake (MFI^NF, %) (HeLa cells) | other results |
| --- | --- | --- | --- |
| ~8 fold | CC(=O)N[C@@H](CC(C)C)C(=O)N[C@H](C(=O)N[C@@H](Cc1ccccc1)C(=O)N[C@H]1CCSCc2cc(cc(C(=O)NCCCC[C@H](NC(=O)COCCOCCNC(=O)CC[C@@H]3NC(=O)[C@@H](CCCNC(=N)N)NC(=O)[C@H](CCCNC(=N)N)NC(=O)[C@@H](CCCNC(=N)N)NC(=O)[C@H](CCCNC(=N)N)NC(=O)[C@H](Cc4ccc5ccccc5c4)NC(=O)[C@@H](Cc4ccccc4)NC3=O)C(N)=O)c2)CSCC[C@@H](C(=O)N[C@@H](CCC(N)=O)C(=O)N[C@@H](CC(C)C)C(=O)N[C@H](C(=O)N[C@@H](CO)C(=O)NCCOCCOCC(=O)N[C@@H](CCCCNC(=O)c2ccc3c(c2)C(=O)OC32c3ccc4cc(O)ccc4c3Oc3c2ccc2cc(O)ccc32)C(N)=O)[C@@H](C)O)NC(=O)[C@H](Cc2c[nH]c3ccccc23)NC(=O)[C@H](Cc2ccc(O)cc2)NC(=O)[C@H](Cc2c[nH]cn2)NC1=O)[C@@H](C)O [Peptide 9, Ac-LTFhCHYWhCQLTS-miniPEG-K(NF)-NH2] (I: Ac-LTF[hCys]HYW[hCys]QLTS[AEEA]K(X1)-NH2 / II: cyclo(R[dR]E[dF][2Nal]R[dR]); linker I:4-I:8-II:3 via X2) |  |  |
| ~2.5 fold | CC(=O)N[C@@H](CC(C)C)C(=O)N[C@H](C(=O)N[C@@H](Cc1ccccc1)C(=O)N[C@H]1CSCc2cccc(c2)CSC[C@@H](C(=O)N[C@@H](CCC(N)=O)C(=O)N[C@@H](CC(C)C)C(=O)N[C@H](C(=O)N[C@@H](CO)C(=O)NCCOCCOCC(=O)N[C@@H](CCCCNC(=O)c2ccc3c(c2)C(=O)OC32c3ccc4cc(O)ccc4c3Oc3c2ccc2cc(O)ccc32)C(N)=O)[C@@H](C)O)NC(=O)[C@H](Cc2c[nH]c3ccccc23)NC(=O)[C@H](Cc2ccc(O)cc2)NC(=O)[C@H](Cc2c[nH]cn2)NC1=O)[C@@H](C)O [Peptide 6] (Ac-LTFCHYWCQLTS[AEEA]K(X1)-NH2; linker 4-8 via mXylylene) |  |  |
| 6 fold | CC(=O)N[C@@H](CCC(=O)O)C(=O)N[C@H](C(=O)N[C@@H](Cc1ccccc1)C(=O)N[C@H]1CSCc2cc(cc(C(=O)NCCCC[C@H](NC(=O)COCCOCCNC(=O)CC[C@@H]3NC(=O)[C@@H](CCCNC(=N)N)NC(=O)[C@H](CCCNC(=N)N)NC(=O)[C@@H](CCCNC(=N)N)NC(=O)[C@H](CCCNC(=N)N)NC(=O)[C@H](Cc4ccc5ccccc5c4)NC(=O)[C@@H](Cc4ccccc4)NC3=O)C(N)=O)c2)CSC[C@@H](C(=O)N[C@@H](CCC(N)=O)C(=O)N[C@@H](CC(C)C)C(=O)N[C@H](C(=O)N[C@@H](CO)C(=O)NCCOCCOCC(=O)N[C@@H](CCCCNC(=O)c2ccc3c(c2)C(=O)OC32c3ccc4cc(O)ccc4c3Oc3c2ccc2cc(O)ccc32)C(N)=O)[C@@H](C)O)NC(=O)[C@H](Cc2c[nH]c3ccccc23)NC(=O)[C@H](Cc2ccc(O)cc2)NC(=O)[C@H](Cc2c[nH]cn2)NC1=O)[C@@H](C)O [Peptide 11] (I: Ac-ETFCHYWCQLTS[AEEA]K(X1)-NH2 / II: cyclo([2Nal]R[dR]R[dR]E[dF]); linker I:4-I:8-II:6 via X2) |  |  |
| ~2 fold | CC(=O)N[C@@H](CC(C)C)C(=O)N[C@H](C(=O)N[C@@H](Cc1ccccc1)C(=O)N[C@H]1CSCc2cc(cc(C(=O)NCCCC[C@H](NC(=O)COCCOCCNC(=O)CC[C@@H]3NC(=O)[C@@H](CCCNC(=N)N)NC(=O)[C@H](CCCNC(=N)N)NC(=O)[C@@H](CCCNC(=N)N)NC(=O)[C@H](CCCNC(=N)N)NC(=O)[C@H](Cc4ccc5ccccc5c4)NC(=O)[C@@H](Cc4ccccc4)NC3=O)C(N)=O)c2)CSC[C@@H](C(=O)N[C@@H](CCC(N)=O)C(=O)N[C@@H](CC(C)C)C(=O)N[C@H](C(=O)N[C@@H](CO)C(=O)NCCOCCOCC(=O)N[C@@H](CCCCNC(=O)c2ccc3c(c2)C(=O)OC32c3ccc4cc(O)ccc4c3Oc3c2ccc2cc(O)ccc32)C(N)=O)[C@@H](C)O)NC(=O)[C@H](Cc2c[nH]c3ccccc23)NC(=O)[C@H](Cc2ccc(O)cc2)NC(=O)[C@H](Cc2c[nH]cn2)NC1=O)[C@@H](C)O [Peptide 7] (I: Ac-LTFCHYWCQLTS[AEEA]K(X1)-NH2 / II: cyclo([2Nal]R[dR]R[dR]E[dF]); linker I:4-I:8-II:6 via X2) |  |  |
